What was measured:
αIIbβ3 integrin = target: T1, αIIbβ3 integrin (Homo sapiens, UniProt P05106+P08514); assay: Assay for the inhibition of αIIbβ3 integrin binding (fibrinogen as ligand, integrin captured from platelet lysate); details: inhibition of specific binding of biotinylated fibrinogen to αIIbβ3 integrin from human platelet lysate
T1 construct: from tissue; host or cells: human platelets (Triton X-100 lysate)
Description: Experiment 2: Assay for the Inhibition of αIIbβ3 Integrin Binding
This experiment was carried out based on the method described in Thromb. Haemostasis, 75, 339 (1996), Blood, 93, 2559 (1999), using fibrinogen as a ligand. According to the method described in the above literatures, assay for the inhibition of αIIbβ3 integrin binding can be achieved by capturing αIIbβ3 integrin from platelet lysate with the use of an activated antibody against αIIbβ3 integrin.
Human platelets were isolated in a conventional manner. At 25° C., the isolated platelets were adjusted to a concentration of 1.25×10^9/ml with TBS+[50 mM Tris-HCl (pH 7.4), 150 mM NaCl, 2 mM CaCl2], and then ⅛ volume of TBS^+ containing 2 mM leupepsin and 10 mM PMSF was added and stirred gently. Nest, 1/9 volume of TBS+ containing 10% Triton X-100 was added and stirred gently. After standing on ice for 30 minutes, a platelet lysate was prepared from the mixture by discarding the insoluble fraction with centrifugation (10,000 g, 15 minutes).
Anti-mouse IgG goat antibody (Jackson Immunoresearch Laboratories, Inc., USA) was adjusted to a concentration of 5 μg/ml with sodium carbonate buffer (pH 9.6) and added to plates at 50 μl/well. The plate was left at 4° C. overnight for immobilization of the antibody. All subsequent steps were done at 25° C., and the procedure for each well was described hereafter.
The well was washed once with TBS^+, and then 200 μl of TBS^+ containing 5% BSA was added to the well and left for one hour for blocking. The well was washed with a reaction solution (TBS^+ containing 0.1% BSA and 0.05% Triton X-100) 4 times, and then 50 μl of anti-human αIIbβ3 integrin activated monoclonal antibody (TAKARA SHUZO CO., LTD, Japan, PT25-2 strain) adjusted to 5 μg/ml with the reaction solution was added to the well. After one hour reaction, the well was washed 4 times with the reaction solution, and 50 μl of the platelet lysate diluted 1:2 with the reaction solution was added to the well. Following 2 hours reaction, the well was washed 4 times with the reaction solution, and 50 μl of the reaction solution was added to the well. Subsequently, 25 μl of a test compound solution adjusted to each concentration with the reaction solution was added, and then mixed with 25 μl of biotinylated fibrinogen (Calbiochem, Germany) adjusted to 2 μg/ml with the reaction solution. The mixture was reacted for one hour. After washing 4 times with the reaction solution, 100 μl of alkaline phosphatase-labeled streptoavidin (Gibco BRL, USA) diluted 1:500 with the reaction solution was added to the well. Following 30 minutes reaction, the well was washed 4 times with the wash solution. Next, 50 μl of the NaDPH solution (Invitrogen, former company name: Gibco BRL, USA) was added and reacted for 20 minutes, and then 50 μl of an amplification solution containing diaphorase and alcohol dehydrogenase (Invitrogen, former company name: Gibco BRL, USA) was added. Color was developed for 20 minutes and the reaction was stopped by adding 50 μl of 0.5 M sulfuric acid.
(§1) The absorbance at 495 nm was measured with a plate reader to obtain a total binding. To obtain a nonspecific binding, EDTA adjusted to 20 mM with the reaction solution was added instead of the test compound solution. A specific binding was calculated by subtracting the nonspecific binding from the total binding.

αvβ3 integrin = αvβ3 integrin (Homo sapiens, UniProt P05106+P06756); assay: Assay for the inhibition of αvβ3 integrin binding (vitronectin as ligand); design: purchased Chemicon International, Inc., USA; details: inhibition of specific binding of biotinylated human vitronectin to immobilized αvβ3 integrin
Description: Experiment 1: Assay for the Inhibition of αvβ3 integrin binding
This experiment was carried out based on the method described in […].
Purified human αvβ3 integrin (Chemicon International, Inc., USA) was adjusted to a concentration of 1 μg/ml with TBS^++ [20 mM Tris-HCl (pH 7.4), 150 mM NaCl, 1 mM CaCl2, 1 mM MgCl2], and the diluted solution was added to plates (Labsystems, Finland) at 50 μl/well. The plate was left at 4° C. overnight for immobilization of the αvβ3 integrin. All subsequent steps were done at 25° C., and the procedure for each well was described hereafter.
The solution was discarded, and then 200 μl of TBS^++ containing 1% BSA (Wako Pure Chemical Industries, Ltd., Japan) was added to the well and left for one hour for blocking. The well was washed with a wash solution (TBS^++ containing 0.01% Tween 20) 4 times, and 50 μl of a reaction solution (TBS^++ containing 0.1% BSA and 0.01% Tween 20) was added to the well. Subsequently, 25 μl of a test compound solution adjusted to each concentration with the reaction solution was added, and then mixed with 25 μl of biotinylated (Amersham Pharmacia Biotech, UK) human vitronectin (Gibco BRL, USA) adjusted to 0.4 μg/ml with the reaction solution. The mixture was reacted for 2 hours. After washing 4 times with the wash solution, 100 μl of peroxidase-labeled streptoavidin (Amersham Pharmacia Biotech, UK) diluted 1:500 with the reaction solution was added to the well. Following 30 minutes reaction, the well was washed 4 times with the wash solution, and 100 μl of a TMB substrate solution (Bio-Rad Laboratories, USA) was added to the well. Color was developed for 20 minutes and the reaction was stopped by adding 100 μl of 0.5 M sulfuric acid.
as §1, with “450” for “495”, “reader (Molecular Devices, USA)” for “reader”

Chain of αvβ3 integrin (P06756 31-889 limits assumed): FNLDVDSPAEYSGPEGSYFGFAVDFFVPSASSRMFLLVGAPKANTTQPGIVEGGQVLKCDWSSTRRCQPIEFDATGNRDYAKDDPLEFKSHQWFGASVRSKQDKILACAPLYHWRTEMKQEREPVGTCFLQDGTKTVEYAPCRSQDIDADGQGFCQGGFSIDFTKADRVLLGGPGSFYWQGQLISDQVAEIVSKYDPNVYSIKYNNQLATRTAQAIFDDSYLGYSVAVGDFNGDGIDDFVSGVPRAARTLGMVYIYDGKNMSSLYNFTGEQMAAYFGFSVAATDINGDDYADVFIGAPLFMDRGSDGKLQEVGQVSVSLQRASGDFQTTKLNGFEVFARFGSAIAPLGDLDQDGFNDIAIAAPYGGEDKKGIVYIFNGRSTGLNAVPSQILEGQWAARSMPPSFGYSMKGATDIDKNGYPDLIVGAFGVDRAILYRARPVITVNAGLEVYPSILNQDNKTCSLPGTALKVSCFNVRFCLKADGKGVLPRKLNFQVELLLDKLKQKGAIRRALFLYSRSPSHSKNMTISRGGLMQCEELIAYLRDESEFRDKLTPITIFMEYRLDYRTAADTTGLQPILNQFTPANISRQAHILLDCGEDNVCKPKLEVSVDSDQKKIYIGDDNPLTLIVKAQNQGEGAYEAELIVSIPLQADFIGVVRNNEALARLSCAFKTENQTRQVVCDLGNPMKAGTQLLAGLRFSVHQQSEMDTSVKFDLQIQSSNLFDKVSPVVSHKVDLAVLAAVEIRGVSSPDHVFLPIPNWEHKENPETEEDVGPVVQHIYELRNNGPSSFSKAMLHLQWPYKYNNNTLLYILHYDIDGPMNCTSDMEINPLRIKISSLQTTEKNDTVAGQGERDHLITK
Chain of αvβ3 integrin (P06756 891-1048 partner limits assumed): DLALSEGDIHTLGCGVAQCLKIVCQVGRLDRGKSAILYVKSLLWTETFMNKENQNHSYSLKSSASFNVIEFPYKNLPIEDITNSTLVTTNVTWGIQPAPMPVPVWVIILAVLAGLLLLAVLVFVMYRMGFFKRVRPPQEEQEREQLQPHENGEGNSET
Chain of αvβ3 integrin (P05106 27-788): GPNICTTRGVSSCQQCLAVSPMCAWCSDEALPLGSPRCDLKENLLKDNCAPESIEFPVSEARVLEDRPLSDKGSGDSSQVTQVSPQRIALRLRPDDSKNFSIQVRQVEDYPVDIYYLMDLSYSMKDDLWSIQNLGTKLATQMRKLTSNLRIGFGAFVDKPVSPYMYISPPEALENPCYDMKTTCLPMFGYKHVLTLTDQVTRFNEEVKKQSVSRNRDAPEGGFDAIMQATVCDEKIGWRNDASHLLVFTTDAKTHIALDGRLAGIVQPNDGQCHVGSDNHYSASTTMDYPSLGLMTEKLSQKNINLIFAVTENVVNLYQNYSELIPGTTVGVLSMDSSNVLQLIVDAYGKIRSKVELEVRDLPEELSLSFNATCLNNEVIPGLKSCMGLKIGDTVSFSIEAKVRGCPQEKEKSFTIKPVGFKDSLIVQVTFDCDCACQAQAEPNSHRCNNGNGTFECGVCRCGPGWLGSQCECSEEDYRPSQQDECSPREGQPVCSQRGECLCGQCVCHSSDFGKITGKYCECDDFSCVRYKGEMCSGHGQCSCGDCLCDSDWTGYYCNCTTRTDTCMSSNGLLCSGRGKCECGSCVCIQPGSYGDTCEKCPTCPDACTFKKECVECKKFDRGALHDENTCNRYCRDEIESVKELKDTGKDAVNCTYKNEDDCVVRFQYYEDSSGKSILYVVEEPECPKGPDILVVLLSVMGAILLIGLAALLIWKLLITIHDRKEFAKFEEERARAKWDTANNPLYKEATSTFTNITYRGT
T1 sequence (P08514 32-887 limits assumed): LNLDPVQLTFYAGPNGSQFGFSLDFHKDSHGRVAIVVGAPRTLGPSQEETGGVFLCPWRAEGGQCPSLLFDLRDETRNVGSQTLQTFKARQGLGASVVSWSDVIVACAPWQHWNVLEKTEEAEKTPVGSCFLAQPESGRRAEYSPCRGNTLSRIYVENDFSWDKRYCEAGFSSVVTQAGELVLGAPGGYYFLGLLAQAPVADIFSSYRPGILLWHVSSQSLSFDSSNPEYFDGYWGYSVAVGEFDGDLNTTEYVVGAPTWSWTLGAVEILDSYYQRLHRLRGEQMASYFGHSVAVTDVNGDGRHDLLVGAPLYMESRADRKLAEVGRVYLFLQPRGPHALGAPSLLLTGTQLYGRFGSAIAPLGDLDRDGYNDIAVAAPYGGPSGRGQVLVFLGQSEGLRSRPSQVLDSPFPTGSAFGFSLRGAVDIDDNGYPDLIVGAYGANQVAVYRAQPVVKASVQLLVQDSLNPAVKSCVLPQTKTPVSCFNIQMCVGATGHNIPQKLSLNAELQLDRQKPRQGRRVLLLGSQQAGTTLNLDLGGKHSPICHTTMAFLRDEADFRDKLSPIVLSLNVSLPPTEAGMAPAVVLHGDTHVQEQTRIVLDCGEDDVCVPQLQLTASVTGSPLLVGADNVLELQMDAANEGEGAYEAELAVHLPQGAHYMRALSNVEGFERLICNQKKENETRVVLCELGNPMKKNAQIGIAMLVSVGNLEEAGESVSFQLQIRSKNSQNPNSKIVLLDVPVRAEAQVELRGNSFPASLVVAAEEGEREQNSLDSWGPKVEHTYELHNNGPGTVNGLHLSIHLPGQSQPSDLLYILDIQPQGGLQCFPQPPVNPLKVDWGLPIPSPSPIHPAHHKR
T1 sequence (P08514 891-1039 partner limits assumed): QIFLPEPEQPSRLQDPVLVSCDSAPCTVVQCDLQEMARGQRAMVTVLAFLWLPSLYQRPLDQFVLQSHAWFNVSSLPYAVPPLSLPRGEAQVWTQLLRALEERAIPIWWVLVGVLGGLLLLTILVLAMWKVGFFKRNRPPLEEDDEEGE
T1 sequence (P05106 27-788): as the sequence (P05106 27-788) above

`O=C(N[C@@H](CNC(=O)C1CCC(c2cccc(NC3=NCCCN3)c2)CC1)C(=O)O)OCc1ccccc1` (single isomer, unassigned) [Ex. 151A] was tested, and the IC50 (αIIbβ3 integrin) was 37 nM and the IC50 (αvβ3 integrin) was 0.074 nM.

`O=C(N[C@@H](CNC(=O)C1CCC(c2cccc(NC3=NCCCN3)c2)CC1)C(=O)O)OCc1ccccc1` (single isomer, unassigned) [Ex. 151B] was tested, and the IC50 (αIIbβ3 integrin) was 510 nM and the IC50 (αvβ3 integrin) was 1.9 nM.

`O=C(N[C@@H](CNC(=O)C1CCN(c2cccc(NC3=NCCCN3)c2)CC1)C(=O)O)OCc1ccccc1` [Ex. 2, (2S)-2-benzyloxycarbonylamino-3-[[1-[3-(1,4,5,6-tetrahydropyrimidin-2-yl)aminophenyl]piperidin-4-yl]carbonylamino]propanoic acid] showed an IC50 (αIIbβ3 integrin) of 43 nM and an IC50 (αvβ3 integrin) of 0.06 nM.

With `O=C(N[C@@H](CNC(=O)C1CCN(c2cccc(NC3=NCCN3)c2)CC1)C(=O)O)OCc1ccccc1` [Ex. 9, (2S)-2-benzyloxycarbonylamino-3-[[1-[3-(2-imidazolin-2-yl)aminophenyl]piperidin-4-yl]carbonylamino]propanoic acid] the IC50 (αIIbβ3 integrin) was 54 nM and the IC50 (αvβ3 integrin) was 0.059 nM.

With `O=C(N[C@@H](CNC(=O)C1CCN(c2cccc(NC3=NCCCCN3)c2)CC1)C(=O)O)OCc1ccccc1` [Ex. 10, (2S)-2-benzyloxycarbonylamino-3-[[1-[3-(1H-4,5,6,7-tetrahydro-1,3-diazepin-2-yl)aminophenyl]piperidin-4-yl]carbonylamino]propanoic acid] the IC50 (αIIbβ3 integrin) was 74 nM and the IC50 (αvβ3 integrin) was 0.075 nM.

`CC1(C)CN=C(Nc2cccc(N3CCC(C(=O)NC[C@H](NC(=O)OCc4ccccc4)C(=O)O)CC3)c2)NC1` [Ex. 11, (2S)-2-benzyloxycarbonylamino-3-[[1-[3-(5,5-dimethyl-1,4,5,6-tetrahydropyrimidin-2-yl)aminophenyl]piperidin-4-yl]carbonylamino]-propanoic acid] was tested, and the IC50 (αIIbβ3 integrin) was 87 nM and the IC50 (αvβ3 integrin) was 0.14 nM.

Compound `O=C(N[C@@H](CNC(=O)C1CCN(c2cccc(NC3=NCC(F)(F)CN3)c2)CC1)C(=O)O)OCc1ccccc1` [Ex. 12, (2S)-2-benzyloxycarbonylamino-3-[[1-[3-(5,5-difluoro-1,4,5,6-tetrahydropyrimidin-2-yl)aminophenyl]piperidin-4-yl]carbonylamino]-propanoic acid] has an IC50 (αIIbβ3 integrin) of 95 nM and an IC50 (αvβ3 integrin) of 0.057 nM.

For `O=C(N[C@@H](CNC(=O)C1CCN(c2cccc(NC3=NCC(F)CN3)c2)CC1)C(=O)O)OCc1ccccc1` (stereo partly drawn) [Ex. 13, (2S)-2-benzyloxycarbonylamino-3-[[1-[3-(5-fluoro-1,4,5,6-tetrahydropyrimidin-2-yl)aminophenyl]piperidin-4-yl]carbonylamino]-propanoic acid], the IC50 (αIIbβ3 integrin) was 59 nM and the IC50 (αvβ3 integrin) was 0.042 nM.

With `CC(C)COC(=O)N[C@@H](CNC(=O)C1CCN(c2cccc(NC3=NCC(C)(C)CN3)c2)CC1)C(=O)O` [Ex. 18, (2S)-2-isobutoxycarbonylamino-3-[[1-[3-(5,5-dimethyl-1,4,5,6-tetrahydropyrimidin-2-yl)aminophenyl]piperidin-4-yl]carbonylamino]-propanoic acid] the IC50 (αIIbβ3 integrin) was 310 nM and the IC50 (αvβ3 integrin) was 0.13 nM.

`CC(C)COC(=O)N[C@@H](CNC(=O)C1CCN(c2cccc(NC3=NCC(F)CN3)c2)CC1)C(=O)O` (stereo partly drawn) [Ex. 19, (2S)-2-isobutoxycarbonylamino-3-[[1-[3-(5-fluoro-1,4,5,6-tetrahydropyrimidin-2-yl)aminophenyl]piperidin-4-yl]carbonylamino]-propanoic acid] showed an IC50 (αIIbβ3 integrin) of 100 nM and an IC50 (αvβ3 integrin) of 0.032 nM.

For `CC(C)COC(=O)N[C@@H](CNC(=O)C1CCN(c2cccc(NC3=NCC(O)CN3)c2)CC1)C(=O)O` (stereo partly drawn) [Ex. 20, (2S)-2-Isobutoxycarbonylamino-3-[[1-[3-(5-hydroxy-1,4,5,6-tetrahydropyrimidin-2-yl)aminophenyl]piperidin-4-yl]carbonylamino]-propanoic acid], the IC50 (αIIbβ3 integrin) was 37 nM and the IC50 (αvβ3 integrin) was 0.061 nM.

Work on `O=C(NCc1ccccc1)Nc1cccc(N2CCC(C(=O)NC[C@H](NC(=O)OCc3ccccc3)C(=O)O)CC2)c1` [Ex. 30, (2S)-3-{[1-[3-(benzylaminocarbonyl)aminophenyl]-piperidin-4-yl}carbonylamino]-2-(benzyloxycarbonylamino)propanoic acid] yielded an IC50 (αIIbβ3 integrin) of 4600 nM and an IC50 (αvβ3 integrin) of 5.1 nM.

Compound `CC(C)OC(=O)N[C@@H](CNC(=O)C1CCN(c2cccc(NC3=NCCCN3)c2)CC1)C(=O)O` [Ex. 44, (2S)-2-isopropoxycarbonylamino-3-[[1-[3-(1,4,5,6-tetrahydropyrimidin-2-yl)aminophenyl]piperidin-4-yl]carbonylamino]-propanoic acid] has an IC50 (αIIbβ3 integrin) of 800 nM and an IC50 (αvβ3 integrin) of 0.11 nM.

`CC(C)COC(=O)N[C@@H](CCC(=O)N1CCN(c2cccc(NC3=NCC(C)(C)CN3)c2)CC1)C(=O)O` [Ex. 126] was tested, and the IC50 (αvβ3 integrin) was 0.38 nM.

Work on `CC(C)COC(=O)N[C@@H](CCC(=O)N1CCN(c2cccc(NC3=NCC(F)CN3)c2)CC1)C(=O)O` (stereo partly drawn) [Ex. 127, (2S)-2-Isobutoxycarbonylamino-5-[4-[3-(5-fluoro-1,4,5,6-tetrahydropyrimidin-2-yl)aminophenyl]piperazin-1-yl]-5-oxopentanoic acid] yielded an IC50 (αvβ3 integrin) of 0.055 nM.

Compound `CC(C)COC(=O)N[C@@H](CCC(=O)N1CCN(c2cccc(NC3=NCC(O)CN3)c2)CC1)C(=O)O` (some centres unmarked) [Ex. 128] has an IC50 (αvβ3 integrin) of 0.3 nM.

`CCOC(=O)N[C@@H](CCC(=O)N1CCN(c2cccc(NC3=NCCCN3)c2)CC1)C(=O)O` [Ex. 136] showed an IC50 (αvβ3 integrin) of 0.59 nM.

`CC(C)COC(=O)N[C@@H](CCC(=O)N1CCN(c2cccc(NC3=NCCCN3)c2)CC1)C(=O)O` [Ex. 138, (2S)-2-isobutoxycarbonylamino-5-[4-[3-(1,4,5,6-tetrahydropyrimidin-2-yl)aminophenyl]piperazin-1-yl]-5-oxopentanoic acid] showed an IC50 (αvβ3 integrin) of 0.32 nM.

Compound `O=C(Cc1ccccc1)N[C@@H](CCC(=O)N1CCN(c2cccc(NC3=NCCCN3)c2)CC1)C(=O)O` [Ex. 139] has an IC50 (αvβ3 integrin) of 6.8 nM.

For `CCNC(=O)N[C@@H](CCC(=O)N1CCN(c2cccc(NC3=NCCCN3)c2)CC1)C(=O)O` [Ex. 142], the IC50 (αvβ3 integrin) was 3.6 nM.

Work on `O=C(NCc1ccccc1)N[C@@H](CCC(=O)N1CCN(c2cccc(NC3=NCCCN3)c2)CC1)C(=O)O` [Ex. 143] yielded an IC50 (αvβ3 integrin) of 1.4 nM.

`O=C(N[C@@H](CCC(=O)N1CCN(c2cc(NC3=NCCCN3)ccc2F)CC1)C(=O)O)OCc1ccccc1` [Ex. 155, (2S)-2-benzyloxycarbonylamino-5-[4-[2-fluoro-5-(1,4,5,6-tetrahydropyrimidin-2-yl)aminophenyl]piperazin-1-yl]-5-oxopentanoic acid] showed an IC50 (αvβ3 integrin) of 0.077 nM.

Source: patent US7176199B2, “Aryl-substituted alicyclic compound and medical composition comprising the same” (Dainippon Pharmaceutical Co., Ltd., priority 2001, dated 2007)
